According to US20240116883A1, “CANNABINOID DERIVATIVES AND THEIR USE THE TREATMENT OF INFLAMMATION AND/OR PAIN AND/OR OBESITY” (Yissum Research Development Company of The Hebrew …, priority 2020, published 2024):

How the values were obtained:
[1] = tested on: swelling, pain, TNF-alpha; experiment: biological activity assays of FIGS. 1-4 (swelling, pain, TNF-alpha, weight bearing); format: in vivo, mice; settings: summary of FIGS. 1-4; varied doses, compared to CBD/CBG
Description: After an additional 90 minutes, the mice were decapitated, and trunk blood was collected for determination of TNF-α levels. […]
TNF-α determination assay: TNF-α (pg/ml) in cell culture supernatants or in mouse blood plasma was determined by the “sandwich” ELISA technique. ELISA reagents were used according to the manufacturer's protocol (R & D Systems).

cannabinoid receptor CB2 = cannabinoid receptor CB2 (Homo sapiens, UniProt P34972); settings: cited from earlier work
Sequence of cannabinoid receptor CB2 (P34972 whole entry): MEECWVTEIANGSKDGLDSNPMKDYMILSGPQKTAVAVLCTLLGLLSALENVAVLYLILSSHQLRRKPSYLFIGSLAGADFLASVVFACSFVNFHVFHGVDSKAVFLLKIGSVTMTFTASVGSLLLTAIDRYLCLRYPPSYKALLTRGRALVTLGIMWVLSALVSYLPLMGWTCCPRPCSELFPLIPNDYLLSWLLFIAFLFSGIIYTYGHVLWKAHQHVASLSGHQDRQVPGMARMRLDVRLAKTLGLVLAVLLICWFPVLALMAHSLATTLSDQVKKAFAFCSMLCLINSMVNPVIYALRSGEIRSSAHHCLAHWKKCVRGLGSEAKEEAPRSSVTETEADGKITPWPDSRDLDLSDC

[2] = tested on: TPA induced erythema of mouse ear; settings: application of a 100 pg/ml solution; cited from earlier work
[3] = tested on: phenylbenzoquinone writhing; settings: mice; versus aspirin; cited from earlier work

Row | SMILES | anti-inflammatory activity [1] | binding to CB2 (cannabinoid receptor CB2) | inhibition of the inflammation response [2] [%] | analgesic potency compared to aspirin [3]
1 | CCCCCCC(C)(C)c1cc(O)c(C/C=C(\C)CCC=C(C)C)c(OC)c1 [HUM-223, (E)-2-(3,7-dimethylocta-2,6-dien-1-yl)-3-methoxy-5-(2-methyloctan-2-yl)phenol] | notable anti-inflammatory activity |  |  | 
2 | C=C(C)[C@@H]1CCC(C)=C[C@H]1c1c(O)cc(CCCCC)c(C)c1O [HUM-216, (1′R,2′R)-3,5′-dimethyl-4-pentyl-2′-(prop-1-en-2-yl)-1′,2′,3′,4′-tetrahydro-[1,1′-biphenyl]-2,6-diol] | notable anti-inflammatory activity |  |  | 
3 | C=C(C)[C@@H]1CCC(C)=C[C@H]1c1c(O)cc(CCCCC)cc1O [CBD, Cannabidiol] |  | does not bind | 92 | much more potent than aspirin
4 | CCCCCc1cc(O)c(C/C=C(\C)CCC=C(C)C)c(O)c1C [HUM-218, (E)-2-(3,7-dimethylocta-2,6-dien-1-yl)-4-methyl-5-pentylbenzene-1,3-diol] | notable anti-inflammatory activity |  |  | 
5 | CCCCCc1cc(O)c([C@@H]2C=C(C)CC[C@H]2C(C)C)c(O)c1C [HUM-217, (1′S,2′S)-2′-isopropyl-3,5′-dimethyl-4-pentyl-1′,2′,3′,4′-tetrahydro-[1,1′-biphenyl]-2,6-diol] | notable anti-inflammatory activity |  |  | 
